These compounds were tested against His-tagged recombinant human Gal-3 (hGal-3) (Homo sapiens (Human), UniProt P17931) (assay: Gal-3 HTRF assay (His-tagged hGal-3 binding to B-ASF)). Details: HTRF, hGal-3 15 nM, B-ASF 15 nM; read-out: hGal-3 IC50.
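Also: compounds preincubated 30 min with hGal-3, then 1 h with B-ASF, detection via terbium anti-His antibody and streptavidin d2. Control with B-ASF counts as full signal, omitting B-ASF as background.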

His-tagged recombinant human Gal-3 (hGal-3), sequence (P17931 whole entry): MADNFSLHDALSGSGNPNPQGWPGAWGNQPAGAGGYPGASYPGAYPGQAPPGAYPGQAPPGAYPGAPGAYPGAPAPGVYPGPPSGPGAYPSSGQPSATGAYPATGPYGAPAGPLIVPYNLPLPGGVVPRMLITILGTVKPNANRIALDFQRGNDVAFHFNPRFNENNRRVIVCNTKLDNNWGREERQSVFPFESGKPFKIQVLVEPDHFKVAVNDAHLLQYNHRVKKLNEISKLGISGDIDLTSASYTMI

`CO[C@@H]1[C@@H](n2cc(-c3ccc(Cl)c(F)c3)nn2)[C@@H](O)[C@@H](CO)O[C@H]1c1nc(C)nn1-c1cc(Cl)ccc1Cl` [Example 257, (2R,3R,4S,5R,6S)-4-(4-(4-chloro-3-fluorophenyl)-1H-1,2,3-triazol-1-yl)-6-(1-(2,5-dichlorophenyl)-3-methyl-1H-1,2,4-triazol-5-yl)-2-(hydroxymethyl)-5-methoxytetrahydro-2H-pyran-3-ol] and `CO[C@@H]1[C@@H](n2cc(-c3ccc(Cl)c(F)c3)nn2)[C@@H](O)[C@@H](CO)O[C@H]1c1nc(C)nn1-c1cc(Cl)ccc1C` [Example 258] are within 1.5-fold of each other in IC50: 50 nM for the first, 60 nM for the second.

Compared with `Cc1nc([C@@H]2O[C@H](CO)[C@H](O)[C@H](n3cc(-c4cc(F)c(Cl)c(F)c4)nn3)[C@H]2O)n(-c2cc(Cl)ccc2Cl)n1` [Example 260], `Cc1nc([C@@H]2O[C@H](CO)[C@H](O)[C@H](n3cc(-c4cc(F)c(Cl)c(F)c4)nn3)[C@H]2O)n(-c2cc(Cl)ccc2C)n1` [Example 261] is 2.5-fold lower in IC50: 50 nM for the first, 20 nM for the second. The second is the more potent here.

Going from `CCc1nc([C@@H]2O[C@H](CO)[C@H](O)[C@H](n3cc(-c4cc(F)c(F)c(F)c4)nn3)[C@H]2O)n(-c2ccc3nc(C)sc3c2)n1` [Example 267] to `Cc1nc2ccc(-n3nc(CC(N)=O)nc3[C@@H]3O[C@H](CO)[C@H](O)[C@H](n4cc(-c5cc(F)c(F)c(F)c5)nn4)[C@H]3O)cc2s1` [Example 268], the IC50 rises from 60 nM to 120 nM (2-fold). The first is the more potent here.

`Cc1nc2ccc(-n3nc(C(=O)O)nc3[C@H]3C[C@@H](n4cc(-c5cccc(F)c5)nn4)[C@@H](O)[C@@H](CO)O3)cc2s1` [Example 269, 5-((2R,4R,5R,6R)-4-(4-(3-fluorophenyl)-1H-1,2,3-triazol-1-yl)-5-hydroxy-6-(hydroxymethyl)tetrahydro-2H-pyran-2-yl)-1-(2-methylbenzo[d]thiazol-6-yl)-1H-1,2,4-triazole-3-carboxylic acid] and `CNC(=O)c1nc([C@H]2C[C@@H](n3cc(-c4cccc(F)c4)nn3)[C@@H](O)[C@@H](CO)O2)n(-c2ccc3nc(C)sc3c2)n1` [Example 271, 5-((2R,4R,5R,6R)-4-(4-(3-fluorophenyl)-1H-1,2,3-triazol-1-yl)-5-hydroxy-6-(hydroxymethyl)tetrahydro-2H-pyran-2-yl)-N-methyl-1-(2-methylbenzo[d]thiazol-6-yl)-1H-1,2,4-triazole-3-carboxamide] are within 1.5-fold of each other in IC50: 330 nM for the first, 390 nM for the second.

Compared with `Cc1nc2ccc(-n3nc(C(C)(C)O)nc3[C@H]3C[C@@H](n4cc(-c5cc(F)c(F)c(F)c5)nn4)[C@@H](O)[C@@H](CO)O3)cc2s1` [Example 270, (2R,3R,4R,6R)-2-(hydroxymethyl)-6-(3-(2-hydroxypropan-2-yl)-1-(2-methylbenzo[d]thiazol-6-yl)-1H-1,2,4-triazol-5-yl)-4-(4-(3,4,5-trifluorophenyl)-1H-1,2,3-triazol-1-yl)tetrahydro-2H-pyran-3-ol], `Cc1nc2ccc(-n3c(C)nnc3[C@H]3C[C@@H](n4cc(-c5cc(F)c(F)c(F)c5)nn4)[C@@H](O)[C@@H](CO)O3)cc2s1` [Example 280, (2R,3R,4R,6R)-2-(hydroxymethyl)-6-(5-methyl-4-(2-methylbenzo[d]thiazol-6-yl)-4H-1,2,4-triazol-3-yl)-4-(4-(3,4,5-trifluorophenyl)-1H-1,2,3-triazol-1-yl)tetrahydro-2H-pyran-3-ol] is 2.4-fold lower in IC50: 170 nM for the first, 70 nM for the second.

First: Cc1nnc([C@@H]2O[C@H](CO)[C@H](O)[C@H](n3cc(-c4cc(F)c(F)c(F)c4)nn3)[C@H]2O)n1-c1cccc(Cl)c1 [Example 272, (2S,3R,4R,5R,6R)-2-(4-(3-chlorophenyl)-5-methyl-4H-1,2,4-triazol-3-yl)-6-(hydroxymethyl)-4-(4-(3,4,5-trifluorophenyl)-1H-1,2,3-triazol-1-yl)tetrahydro-2H-pyran-3,5-diol]
Second: Cc1nc2ccc(-n3c(C)nnc3[C@@H]3O[C@H](CO)[C@H](O)[C@H](n4cc(-c5cc(F)c(F)c(F)c5)nn4)[C@H]3O)cc2s1 [Example 273, (2R,3R,4R,5R,6S)-2-(hydroxymethyl)-6-(5-methyl-4-(2-methylbenzo[d]thiazol-6-yl)-4H-1,2,4-triazol-3-yl)-4-(4-(3,4,5-trifluorophenyl)-1H-1,2,3-triazol-1-yl)tetrahydro-2H-pyran-3,5-diol]
The IC50 of the first is 1.8-fold higher: 70 nM for the first, 40 nM for the second. The second is the more potent here.

`Cc1nc2ccc(-n3c([C@@H]4O[C@H](CO)[C@H](O)[C@H](n5cc(-c6cc(F)c(F)c(F)c6)nn5)[C@H]4O)nnc3C(C)(C)O)cc2s1` [Example 276, (2R,3R,4R,5R,6S)-2-(hydroxymethyl)-6-(5-(2-hydroxypropan-2-yl)-4-(2-methylbenzo[d]thiazol-6-yl)-4H-1,2,4-triazol-3-yl)-4-(4-(3,4,5-trifluorophenyl)-1H-1,2,3-triazol-1-yl)tetrahydro-2H-pyran-3,5-diol] and `Cc1nc2ccc(-n3c(C(N)=O)nnc3[C@@H]3O[C@H](CO)[C@H](O)[C@H](n4cc(-c5cc(F)c(F)c(F)c5)nn4)[C@H]3O)cc2s1` [Example 277, 5-((2S,3R,4R,5R,6R)-3,5-dihydroxy-6-(hydroxymethyl)-4-(4-(3,4,5-trifluorophenyl)-1H-1,2,3-triazol-1-yl)tetrahydro-2H-pyran-2-yl)-4-(2-methylbenzo[d]thiazol-6-yl)-4H-1,2,4-triazole-3-carboxamide] are within 1.5-fold of each other in IC50: 50 nM for the first, 40 nM for the second.

First: CSc1nnc([C@@H]2O[C@H](CO)[C@H](O)[C@H](n3cc(-c4cc(F)c(F)c(F)c4)nn3)[C@H]2O)n1-c1ccc(Cl)c(Cl)c1 [Example 278, (2S,3R,4R,5R,6R)-2-(4-(3,4-dichlorophenyl)-5-(methylthio)-4H-1,2,4-triazol-3-yl)-6-(hydroxymethyl)-4-(4-(3,4,5-trifluorophenyl)-1H-1,2,3-triazol-1-yl)tetrahydro-2H-pyran-3,5-diol]
Second: CS(=O)(=O)c1nnc([C@@H]2O[C@H](CO)[C@H](O)[C@H](n3cc(-c4cc(F)c(F)c(F)c4)nn3)[C@H]2O)n1-c1ccc(Cl)c(Cl)c1 [Example 279, (2S,3R,4R,5R,6R)-2-(4-(3,4-dichlorophenyl)-5-(methylsulfonyl)-4H-1,2,4-triazol-3-yl)-6-(hydroxymethyl)-4-(4-(3,4,5-trifluorophenyl)-1H-1,2,3-triazol-1-yl)tetrahydro-2H-pyran-3,5-diol]
The IC50 of the first is 1.7-fold higher: 120 nM for the first, 70 nM for the second.

First: Cc1nc2ccc(-n3c([C@H]4C[C@@H](n5cc(-c6cc(F)c(F)c(F)c6)nn5)[C@@H](O)[C@@H](CO)O4)nnc3C(F)(F)F)cc2s1 [Example 281, (2R,3R,4R,6R)-2-(hydroxymethyl)-6-(4-(2-methylbenzo[d]thiazol-6-yl)-5-(trifluoromethyl)-4H-1,2,4-triazol-3-yl)-4-(4-(3,4,5-trifluorophenyl)-1H-1,2,3-triazol-1-yl)tetrahydro-2H-pyran-3-ol]
Second: CO[C@@H]1[C@@H](n2cc(-c3cc(F)c(F)c(F)c3)nn2)[C@@H](O)[C@@H](CO)O[C@H]1c1nncn1-c1ccc2nc(C)sc2c1 [Example 282, (2R,3R,4S,5R,6S)-2-(hydroxymethyl)-5-methoxy-6-(4-(2-methylbenzo[d]thiazol-6-yl)-4H-1,2,4-triazol-3-yl)-4-(4-(3,4,5-trifluorophenyl)-1H-1,2,3-triazol-1-yl)tetrahydro-2H-pyran-3-ol]
The IC50 of the first is 2.7-fold higher: 80 nM for the first, 30 nM for the second.

Going from `Cc1nc([C@@H]2O[C@H](CO)[C@H](O)[C@H](n3cc(-c4cc(F)c(F)c(F)c4)nn3)[C@H]2O)c(-c2cccc(Cl)c2)s1` [Example 284, (2S,3R,4R,5R,6R)-2-(5-(3-chlorophenyl)-2-methylthiazol-4-yl)-6-(hydroxymethyl)-4-(4-(3,4,5-trifluorophenyl)-1H-1,2,3-triazol-1-yl)tetrahydro-2H-pyran-3,5-diol] to `Cn1ncc(-c2cccc(Cl)c2)c1[C@@H]1O[C@H](CO)[C@H](O)[C@H](n2cc(-c3cc(F)c(F)c(F)c3)nn2)[C@H]1O` [Example 287, (2S,3R,4R,5R,6R)-2-(4-(3-chlorophenyl)-1-methyl-1H-pyrazol-5-yl)-6-(hydroxymethyl)-4-(4-(3,4,5-trifluorophenyl)-1H-1,2,3-triazol-1-yl)tetrahydro-2H-pyran-3,5-diol], the IC50 rises from 2400 nM to 10000 nM (4.2-fold). The first is the more potent here.

Compared with `OC[C@H]1O[C@@H](c2ccnn2-c2ccc(Cl)c(Cl)c2)[C@H](O)[C@@H](n2cc(-c3cc(F)c(F)c(F)c3)nn2)[C@H]1O` [Example 285, (2S,3R,4R,5R,6R)-2-(1-(3,4-dichlorophenyl)-1H-pyrazol-5-yl)-6-(hydroxymethyl)-4-(4-(3,4,5-trifluorophenyl)-1H-1,2,3-triazol-1-yl)tetrahydro-2H-pyran-3,5-diol], `OC[C@H]1O[C@@H](c2oncc2-c2ccc(Cl)c(Cl)c2)[C@H](O)[C@@H](n2cc(-c3cc(F)c(F)c(F)c3)nn2)[C@H]1O` [Example 288, (2R,3R,4S,5R,6R)-2-(4-(3,4-dichlorophenyl)isoxazol-5-yl)-6-(hydroxymethyl)-4-(4-(3,4,5-trifluorophenyl)-1H-1,2,3-triazol-1-yl)tetrahydro-2H-pyran-3,5-diol] is 9-fold higher in IC50: 445 nM for the first, 4000 nM for the second. The first is the more potent here.

Same assay, conditions: read-out: hGal3 IC50

Compared with `Cc1nc([C@@H]2O[C@H](CO)[C@H](O)[C@H](n3cc(-c4ccc(Cl)c(F)c4)nn3)[C@H]2O)n(-c2cc(F)ccc2C(F)(F)F)n1` [Example 254], `Cc1nc([C@@H]2O[C@H](CO)[C@H](O)[C@H](n3cc(-c4ccc(Cl)c(F)c4)nn3)[C@H]2O)n(-c2cc(C(F)(F)F)ccc2Cl)n1` [Example 255] is 1.6-fold lower in IC50: 110 nM for the first, 70 nM for the second. The second is the more potent here.

Going from `Cc1nc([C@@H]2O[C@H](CO)[C@H](O)[C@H](n3cc(-c4ccc(Cl)c(F)c4)nn3)[C@H]2O)n(-c2ccc3ncsc3c2)n1` [Example 256] to `Cc1nc([C@H]2C[C@@H](n3cc(-c4cc(F)c(Cl)c(F)c4)nn3)[C@@H](O)[C@@H](CO)O2)n(-c2ccc3ncsc3c2)n1` [Example 265], the IC50 falls from 80 nM to 30 nM (2.7-fold).

`Cc1nc([C@H]2C[C@@H](n3cc(-c4cc(F)c(Cl)c(F)c4)nn3)[C@@H](O)[C@@H](CO)O2)n(-c2cc(Cl)ccc2Cl)n1` [Example 262] and `Cc1nc([C@H]2C[C@@H](n3cc(-c4cc(F)c(Cl)c(F)c4)nn3)[C@@H](O)[C@@H](CO)O2)n(-c2cc(Cl)ccc2C)n1` [Example 263] are within 1.5-fold of each other in IC50: 100 nM for the first, 120 nM for the second.

`Cc1nc2ccc(-n3c([C@@H]4O[C@H](CO)[C@H](O)[C@H](n5cc(-c6cc(F)c(F)c(F)c6)nn5)[C@H]4O)nnc3C(F)(F)F)cc2s1` [Example 274] and `CCOC(=O)c1nnc([C@@H]2O[C@H](CO)[C@H](O)[C@H](n3cc(-c4cc(F)c(F)c(F)c4)nn3)[C@H]2O)n1-c1ccc2nc(C)sc2c1` [Example 275] are within 1.5-fold of each other in IC50: 50 nM for the first, 60 nM for the second.
